Source: patent publication US4415577A, “Bis-sparteine derivatives and method of using same in therapy” (Kali-Chemie Pharma GmbH, priority 1980, dated 1983)
Counter-ions that a name gives are not always drawn.

Tests used:
[1] = acute toxicity (LD50) in mice after oral administration; type: in vivo, mouse (male NMRI); conditions: mouse, in vivo; male NMRI-mice, oral, 50% mortality on the 7th day; read-out: LD50 per os
Description: (§1) The acute toxicity of the compounds is determined in male NMRI-mice (body weight range 18-22 g) after oral (p.o) administration. The LD50 is defined as that dose in μmol/kg which causes a 50% mortality rate of the test animals on the 7th day after application. The calculation of the LD50 is carried out by probitanalysis (see L. Cavalli-Sforza, Grundbegriffe der Biometric, Gustav Fischer Verlag Stuttgart (1964).

isolated left atria = test: prolongation of the functional refractory period (FRP), double stimulus method of Govier; parameters: species or system guinea pig (female albino-pirbright-white); conditions: Cavia porcellus, 0.3 h; isolated left atria of female guinea pigs, 18 minutes after application; read-out: FRP 125% (concentration causing prolongation of the functional refractory period to 125%)
[2] = system: aconitin-induced arrhythmic effects; test: aconitin-induced arrhythmia test (Aconitine test), oral; type: in vivo, rat (male Wistar); conditions: for minimal effective dose: Rattus norvegicus, po, 3 h, read-out: Aconitine test, effective dose per os
Description: The influence of the novel compound on aconitin-induced arrhythmic effects is determined on male Wistar rats (weighing 280-350 g) which are treated with an aconitin infusion according to the method of Raschak (M. Raschak, Arzneim. Forschung (Drug Research) 25 (1975) pp. 639-641). The effective dose which is given in μmol/kg, is the dose which cause a significant difference in time between the starting of the aconitin-induced arrhythmic effect in animals treated with the active ingredient and the starting of this aconitin-induced effect in an untreated control group of animals. In order to be considered effective the dose must cause a significant prolongation of the period until the aconitin-induced arrhythmic effects start, and it must be effective against at least two of the aconitin-induced arrhythmic symptoms (extrasystoles, ventricular flutter, ventricular tachycardia). The test compound is applied orally inform of a 2% suspension of tylose ^R MH 50 three hours before the aconitin-infusion is started.
As a standard dose one tenth of the LD50 in mice is used. If a test compound is effective at this dose, the dose is reduced in a following test. The statistical t-test method according to Student using logarithmic values of the effective values is used for significance testing (see Lothar Sachs, Statistische Auswertungsmethoden, Springer Verlag 1969).

male NMRI-mice = test: acute toxicity (LD50) in mice after oral administration; type: in vivo, mouse (male NMRI); conditions: comparison in words
Description: as §1

Row | Structure (SMILES) | LD50 at 168 h [1] [µmol/kg] | EC (125%) (isolated left atria) [µM] | minimal effective dose [2] [µmol/kg] | toxicity compared with known sparteine derivatives (male NMRI-mice) | effectiveness compared with the known tested sparteine compounds ([2]; conclusion in words from table 1) | effect after oral application, after a period of 3 hours ([2]; oral, after 3 hours, same conditions for known compounds)
1 | C1CCN2C[C@@H]3C[C@@H]([C@@H]([C@@H]4[C@@H]5C[C@@H](CN6CCCC[C@H]56)[C@@H]5CCCCN45)N4CCCC[C@@H]34)[C@H]2C1 [17S,17'S-bissparteine ditartrate] | > 1900 | 5 | 33 | – | – | –
2 | C1CCN2C[C@@H]3C[C@@H]([C@@H]([C@@H]4[C@@H]5C[C@@H](CN6CCCC[C@H]56)[C@@H]5CCCCN45)N4CCCC[C@@H]34)[C@H]2C1 [17S,17'S-bissparteine] | – | – | – | less toxic | more effective than the known tested sparteine compounds | retains its good effect even after a period of 3 hours
3 | CCCCCC1C2CC(CN3CCCCC23)C2CCCCN21 (stereo not drawn) [Pentyl sparteine tartrate] | 1800 | 9 | > 180 | – | – | –
4 | C1CCN2C[C@@H]3C[C@@H](CN4CCCC[C@@H]34)[C@H]2C1 [Sparteine sulfate] | 540 | 34 | > 54 | – | – | –
